According to publication PMC9650016 (Brain, Behavior, & Immunity - Health, 2022):

Target: T1, PPM1A (protein phosphatase magnesium-dependent 1A; PP2Cα) (Homo sapiens, UniProt P35813)
T1 sequence (P35813 2-382): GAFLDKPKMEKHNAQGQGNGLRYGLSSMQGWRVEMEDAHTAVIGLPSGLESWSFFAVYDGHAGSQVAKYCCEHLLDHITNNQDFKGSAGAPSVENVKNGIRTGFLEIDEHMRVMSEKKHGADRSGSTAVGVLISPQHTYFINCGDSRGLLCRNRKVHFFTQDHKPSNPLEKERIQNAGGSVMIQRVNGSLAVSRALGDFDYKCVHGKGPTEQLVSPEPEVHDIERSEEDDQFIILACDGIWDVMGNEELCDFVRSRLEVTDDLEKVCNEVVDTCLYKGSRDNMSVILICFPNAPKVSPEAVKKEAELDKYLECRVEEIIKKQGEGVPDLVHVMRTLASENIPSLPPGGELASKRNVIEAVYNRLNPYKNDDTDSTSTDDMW
Experiment: microscale thermophoresis
Format: binding

Kd: 2.69 µM
SMILES: CCCCCCCCCCCCCCCCOP(=O)([O-])OCC[N+](C)(C)C [MF, Miltefosine]
